Data on one molecule can be found in patent US20220296541A1, “N-PALMITOYL-ETHANOLAMIDE FOR USE IN THE PREVENTION OF COLORECTAL CARCINOMA” (priority 2021, published 2022).

Data set [1] relates to AOM-induced ACF, polyps and tumors. The data set is described as follows: AOM mouse model of colon cancer. The format is in vivo, male CD1 mice. Conditions: 10 mg/kg per os three times a week for 13 weeks, starting the week before first AOM.
Description: The in vivo study was conducted on six-week-old (25-30 g) male CD1 mice fed ad libitum and housed in cages with a controlled sleep/wake cycle. Before the start of the experimentation, the animals were subjected to an acclimatization period of 1 week considering all the experimental procedures and protocols, compliant with the principles of the care of laboratory animals approved by the Italian Ministry of Health and respecting the ARRIVE guidelines [Curtis M J et al. Experimental design and analysis and their reporting II: updated and simplified guidance for authors and peer reviewers. […] The animals were chemically treated with AOM (azoxymethane, 40 mg/kg in total) [Neufert C et al. An inducible mouse model of colon carcinogenesis for the analysis of sporadic and inflammation-driven tumor progression. […] A single dose of AOM was injected intraperitoneally at a concentration of 10 mg/kg at the beginning of the first, second, third and fourth weeks of the experiment [Pagano E et al. Pharmacological inhibition of MAGL attenuates experimental colon carcinogenesis, Pharmacol Res 2017; 119: 227-236]. […] The animals were euthanized 12 weeks after the first AOM injection and the colorectal area was collected. […] The detection and quantification of ACF, polyps and colorectal tumors was performed following the protocol of Pagano E et al. Pharmacological inhibition of MAGL attenuates experimental colon carcinogenesis, Pharmacol Res 2017; 119: 227-236.
Data set [2] concerns healthy human colon epithelial cells HCEC. The data set is described as follows: BrdU proliferation ELISA, healthy colon epithelial cells HCEC. The data set is classed as cell-based. The conditions noted are these: 24 h (FIG. 2C). As for the experimental part: (§1) For the in vitro experiments, immortalized human colon cancer (HCT116) and human colorectal adenocarcinoma cell lines (Caco-2) and immortalized healthy human colon epithelial cells (HCEC) were cultured in DMEM growth medium (Sigma Aldrich) supplemented with 10% serum bovine fetal (FBS, Sigma Aldrich) and kept at 37° C. in an incubator with a 5% CO2 atmosphere.
(§2) To assess viability, the cells are stained with Trypan blue while cell proliferation, in the presence or absence of ultra-micronized PEA (1-30 μM), was determined using the BrdU proliferation ELISA kit (Roche, Milan, Italy).
A general note: In an ELISA, binding on a coated surface is turned into a signal by an enzyme label.

The test system of data set [3] is HCT116 cells. The experiment in a line: BrdU proliferation ELISA, HCT116 cells. The format is cell-based, human. Conditions: 1-30 μM, 24 hours of exposure (FIG. 2A). As for the experimental part: as §1, §2
The subject of data set [4] is cyclin B1. The data set is described as follows: Gene expression of cyclin B1 by Real-Time PCR in HCT116 cells. The format is cell-based, human. Conditions: 30 μM for 24 h (FIG. 3B). As for the experimental part:
as §1
(§3) The expression of the CDK1 and CYCLIN B1 genes was evaluated by virtue of the quantitative Real-Time PCR method using specific primers.

In data set [5] the test system is HCT116 cells. The experiment in a line: Cell cycle analysis by flow cytometry (BrdU/7-AAD) of HCT116 cells. The data set is classed as cell-based, human. Conditions: 30 μM for 24 h (FIG. 3A). As for the experimental part: as §1
The cell cycle analysis of HCT116 cells was performed following the protocol reported in the BD Pharmingen™ BrdU Flow Kit (BD Biosciences, USA). For the study, 1.5×10^5 cells was sown on 6-well plates and kept overnight in serum-free medium in the presence or absence of ultra-micronized PEA (30μM) for 24 h. The cells were detected with the BriCyte flow cytometer (Mindray, Italy) according to the BrdU (bromodeoxyuridine) and 7-AAD (7-aminoactinomycin D) content thereof. The data obtained were analyzed with FlowJo v10 software (tree Star, USA) to understand the distribution of HCT116 in the different cell cycle phases.
In general terms: In flow cytometry, cells or beads pass a laser one at a time.

In data set [6] the test system is cyclic-dependent kinase 1 (CDK1). The data set is described as follows: Gene expression of CDK1 by Real-Time PCR in HCT116 cells. The data set is classed as cell-based, human. The conditions noted are these: 30 μM for 24 h (FIG. 3C). As for the experimental part:
as §1, §3

Data set [7] deals with Caco-2 cells. The data set is described as follows: BrdU proliferation ELISA, Caco-2 cells. The conditions noted are these: 30 μM, 24 h (FIG. 2B). The data set is classed as cell-based, human. As for the experimental part: as §1, §2

Take `CCCCCCCCCCCCCCCC(=O)NCCO` [ultra-micronized PEA, palmitoylethanolamide]: the “number of pre-neoplastic ACF lesions” value in data set [1] (vs AOM alone (FIG. 4A)) was “significantly reduces”. Besides, the number of polyps result in data set [1] (vs AOM alone (FIG. 4B)) is recorded as “strong tendency to also reduce”. Besides, the “total number of tumors” value in data set [1] (vs AOM alone (FIG. 4C)) was “significantly reduces”. Further, the “proliferation rate of the healthy epithelial cell line HCEC” value in data set [2] is recorded as “did not affect the proliferation rate”. In addition, the “proliferation rate of HCT116 cells” value in data set [3] was “reduces the proliferation rate”. In data set [4], the “expression of cyclin B1” value is on record as “increased expression”. Also, in data set [5], the “cell cycle arrest in the G2/M phase” value is on record as “blocking neoplastic cells in the G2/M phase” and the “percentage of cells in the S phase” value is given as “significant reduction”. Further, the “expression of CDK1” value in data set [6] is reported as “increased expression”. In data set [7], the “proliferation of non-metastatic Caco-2 cells” value is “significantly reducing the proliferation”.
